Measurements taken from US10499642B2, “Isoxazoline-substituted benzamides and analogues as insecticides” (SYNGENTA PARTICIPATIONS AG, priority 2015, dated 2019).
Where two headings read alike, the source gives them in different places.

Columns and labels:
Assay type in all cases: in vivo
Spodoptera littoralis = Spodoptera littoralis (Egyptian cotton leaf worm) cotton leaf disc test; conditions: foliar, 72 h, read-out: control (at least one of mortality, anti-feedant effect, and growth inhibition)
Summary of the method: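 Five first-instar larvae per disc were placed on dried, sprayed cotton leaf discs held on agar. Test solutions were aqueous, made from 10′000 ppm DMSO stocks. At day 3, control was counted when mortality, feeding deterrence or growth inhibition exceeded the untreated discs.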

Plutella xylostella = Plutella xylostella (diamond back moth) artificial diet test; conditions: 120 h, read-out: effect in at least one of the two categories (mortality or growth inhibition)
Summary of the method: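 At a 200 ppm rate, test solutions were applied to artificial diet and allowed to dry before second-instar larvae were added. Five days later, larval mortality and growth inhibition were rated against untreated samples.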

Diabrotica Balteata = test: Diabrotica balteata (corn root worm) maize sprout test; conditions: 96 h, read-out: effect in at least one of the two categories (mortality or growth inhibition)
Summary of the method: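 Scoring covered both mortality and growth inhibition relative to untreated controls, 4 days post-infestation. Test solutions at 200 ppm, diluted in water from 10′000 ppm DMSO stocks, were sprayed onto agar-held maize sprouts, which after drying received 6 to 10 L2 larvae each well.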

Thrips tabaci = Thrips tabaci (onion thrips) sunflower leaf disc test; conditions: foliar, 144 h
Experimental: Thrips tabaci (Onion Thrips):
(§1) Sunflower leaf discs were placed on agar in 24-well microtiter plates and sprayed with aqueous test solutions prepared from 10′000 ppm DMSO stock solutions. After drying the leaf discs were infested with a thrips population of mixed ages. The samples were assessed for mortality 6 days after infestation.

Tetranychus urticae = Tetranychus urticae (two-spotted spider mite) bean leaf disc test; conditions: foliar, 192 h
Experimental: Tetranychus urticae (Two-Spotted Spider Mite):
as §1, with “Bean” for “Sunflower”, “discs” for “discs were placed”, “were” for “and”, “mite” for “thrips”, “on mixed population (mobile stages) 8” for “6”

Myzus persicae = Myzus persicae (green peach aphid) sunflower leaf disc test; conditions: foliar, 144 h
Experimental: Myzus persicae (Green Peach Aphid):
Sunflower leaf discs were placed on agar in a 24-well microtiter plate and sprayed with test solutions at an application rate of 200 ppm. After drying, the leaf discs were infested with an aphid population of mixed ages. After an incubation period of 6 days after treatment, samples were checked for mortality. The following compounds gave at least 80% mortality of Myzus persicae: […]

[1] = application rate 200 ppm, cotton leaf discs, L1 larvae, 3 days after infestation
[2] = application rate 200 ppm, artificial diet, L2 larvae, 5 days after infestation
[3] = application rate 200 ppm, maize sprouts, L2 larvae, 4 days after infestation
[4] = application rate 200 ppm, sunflower leaf discs, population of mixed ages, 6 days after infestation, read-out: mortality
[5] = application rate 200 ppm, bean leaf discs, mixed population (mobile stages), 8 days after infestation, read-out: mortality
[6] = application rate 200 ppm, sunflower leaf discs, population of mixed ages, 6 days after treatment, read-out: mortality

Cc1cc(C2=NO[C@@](c3cc(Cl)cc(Cl)c3)(C(F)(F)F)C2)ccc1C(=O)NC1CC(Br)=NO1 (stereo partly drawn) [Compound A055]
≥ 80%: percent control (mortality, anti-feedant effect or growth inhibition) at 200 ppm (Spodoptera littoralis) | percent effect (mortality or growth inhibition) at 200 ppm (Plutella xylostella) | percent effect (mortality or growth inhibition) at 200 ppm (Diabrotica Balteata) | mortality at 200 ppm (Thrips tabaci) | mortality at 200 ppm (Tetranychus urticae) | mortality at 200 ppm (Myzus persicae)

Cc1cc(C2=NO[C@@](c3cc(Cl)cc(Cl)c3)(C(F)(F)F)C2)ccc1C(=O)N(C=O)C1CC(Br)=NO1 (stereo partly drawn) [Compound A056, N-(3-bromo-4,5-dihydroisoxazol-5-yl)-4-[(5S)-5-(3,5-dichlorophenyl)-5-(trifluoromethyl)-4H-isoxazol-3-yl]-N-formyl-2-methyl-benzamide]
≥ 80%: percent control (mortality, anti-feedant effect or growth inhibition) at 200 ppm (Spodoptera littoralis) | percent effect (mortality or growth inhibition) at 200 ppm (Plutella xylostella) | percent effect (mortality or growth inhibition) at 200 ppm (Diabrotica Balteata) | mortality at 200 ppm (Thrips tabaci) | mortality at 200 ppm (Tetranychus urticae) | mortality at 200 ppm (Myzus persicae)

COC1=NOC(NC(=O)c2ccc(C3=NO[C@@](c4cccc(C(F)(F)F)c4)(C(F)(F)F)C3)cc2C)C1 (stereo partly drawn) [Compound A057]
≥ 80%: percent control (mortality, anti-feedant effect or growth inhibition) at 200 ppm (Spodoptera littoralis; [1]) | percent effect (mortality or growth inhibition) at 200 ppm (Plutella xylostella; [2]) | percent effect (mortality or growth inhibition) at 200 ppm (Diabrotica Balteata; [3]) | mortality at 200 ppm (Thrips tabaci; [4]) | mortality at 200 ppm (Tetranychus urticae; [5]) | mortality at 200 ppm (Myzus persicae; [6])

Cc1cc(C2=NO[C@@](c3cccc(C(F)(F)F)c3)(C(F)(F)F)C2)ccc1C(=O)NC1CC(Br)=NO1 (stereo partly drawn) [Compound A058]
≥ 80%: percent control (mortality, anti-feedant effect or growth inhibition) at 200 ppm (Spodoptera littoralis; [1]) | percent effect (mortality or growth inhibition) at 200 ppm (Plutella xylostella; [2]) | percent effect (mortality or growth inhibition) at 200 ppm (Diabrotica Balteata; [3]) | mortality at 200 ppm (Thrips tabaci; [4]) | mortality at 200 ppm (Tetranychus urticae; [5]) | mortality at 200 ppm (Myzus persicae; [6])

CCOC1=NOC(NC(=O)c2ccc(C3=NO[C@@](c4cc(Cl)c(Cl)c(Cl)c4)(C(F)(F)F)C3)cc2C)C1 (stereo partly drawn) [Compound A059]
≥ 80%: percent control (mortality, anti-feedant effect or growth inhibition) at 200 ppm (Spodoptera littoralis) | percent effect (mortality or growth inhibition) at 200 ppm (Plutella xylostella) | percent effect (mortality or growth inhibition) at 200 ppm (Diabrotica Balteata) | mortality at 200 ppm (Thrips tabaci) | mortality at 200 ppm (Tetranychus urticae) | mortality at 200 ppm (Myzus persicae)

CCOC1=NOC(NC(=O)c2ccc(C3=NO[C@@](c4cc(Cl)c(Cl)c(Cl)c4)(C(F)(F)F)C3)cc2Cl)C1 (stereo partly drawn) [Compound A060, 2-chloro-N-(3-ethoxy-4,5-dihydroisoxazol-5-yl)-4-[(5S)-5-(3,4,5-trichlorophenyl)-5-(trifluoromethyl)-4H-isoxazol-3-yl]benzamide]
≥ 80%: percent control (mortality, anti-feedant effect or growth inhibition) at 200 ppm (Spodoptera littoralis) | percent effect (mortality or growth inhibition) at 200 ppm (Plutella xylostella) | percent effect (mortality or growth inhibition) at 200 ppm (Diabrotica Balteata) | mortality at 200 ppm (Thrips tabaci) | mortality at 200 ppm (Tetranychus urticae) | mortality at 200 ppm (Myzus persicae)

CCOC1=NOC(NC(=O)c2ccc(C3=NO[C@@](c4cc(Cl)cc(Cl)c4)(C(F)(F)F)C3)cc2C)C1 (stereo partly drawn) [Compound A061, 4-[(5S)-5-(3,5-dichlorophenyl)-5-(trifluoromethyl)-4H-isoxazol-3-yl]-N-(3-ethoxy-4,5-dihydroisoxazol-5-yl)-2-methyl-benzamide]
≥ 80%: percent control (mortality, anti-feedant effect or growth inhibition) at 200 ppm (Spodoptera littoralis) | percent effect (mortality or growth inhibition) at 200 ppm (Plutella xylostella) | percent effect (mortality or growth inhibition) at 200 ppm (Diabrotica Balteata) | mortality at 200 ppm (Thrips tabaci) | mortality at 200 ppm (Tetranychus urticae) | mortality at 200 ppm (Myzus persicae)

COC1=NOC(NC(=O)c2ccc(C3=NO[C@@](c4cc(Cl)cc(Cl)c4)(C(F)(F)F)C3)cc2Cl)C1 (stereo partly drawn) [Compound A062]
≥ 80%: percent control (mortality, anti-feedant effect or growth inhibition) at 200 ppm (Spodoptera littoralis) | percent effect (mortality or growth inhibition) at 200 ppm (Plutella xylostella) | percent effect (mortality or growth inhibition) at 200 ppm (Diabrotica Balteata) | mortality at 200 ppm (Thrips tabaci) | mortality at 200 ppm (Tetranychus urticae) | mortality at 200 ppm (Myzus persicae)

CCOC1=NOC(NC(=O)c2ccc(C3=NO[C@@](c4cc(Cl)cc(Cl)c4)(C(F)(F)F)C3)cc2Cl)C1 (stereo partly drawn) [Compound A063]
≥ 80%: percent control (mortality, anti-feedant effect or growth inhibition) at 200 ppm (Spodoptera littoralis) | percent effect (mortality or growth inhibition) at 200 ppm (Plutella xylostella) | percent effect (mortality or growth inhibition) at 200 ppm (Diabrotica Balteata) | mortality at 200 ppm (Thrips tabaci) | mortality at 200 ppm (Tetranychus urticae) | mortality at 200 ppm (Myzus persicae)

CCOC1=NOC(NC(=O)c2ccc(C3=NO[C@@](c4cc(Cl)c(F)c(Cl)c4)(C(F)(F)F)C3)cc2Cl)C1 (stereo partly drawn) [Compound A064]
≥ 80%: percent control (mortality, anti-feedant effect or growth inhibition) at 200 ppm (Spodoptera littoralis) | percent effect (mortality or growth inhibition) at 200 ppm (Plutella xylostella) | percent effect (mortality or growth inhibition) at 200 ppm (Diabrotica Balteata) | mortality at 200 ppm (Thrips tabaci) | mortality at 200 ppm (Tetranychus urticae) | mortality at 200 ppm (Myzus persicae)

COC1=NOC(NC(=O)c2ccc(C3=NO[C@@](c4cc(Cl)cc(C(F)(F)F)c4)(C(F)(F)F)C3)cc2Cl)C1 (stereo partly drawn) [Compound A065]
≥ 80%: percent control (mortality, anti-feedant effect or growth inhibition) at 200 ppm (Spodoptera littoralis) | percent effect (mortality or growth inhibition) at 200 ppm (Plutella xylostella) | percent effect (mortality or growth inhibition) at 200 ppm (Diabrotica Balteata) | mortality at 200 ppm (Thrips tabaci) | mortality at 200 ppm (Tetranychus urticae) | mortality at 200 ppm (Myzus persicae)

CCOC1=NOC(NC(=O)c2ccc(C3=NO[C@@](c4cc(Cl)cc(C(F)(F)F)c4)(C(F)(F)F)C3)cc2Cl)C1 (stereo partly drawn) [Compound A066]
≥ 80%: percent control (mortality, anti-feedant effect or growth inhibition) at 200 ppm (Spodoptera littoralis) | percent effect (mortality or growth inhibition) at 200 ppm (Plutella xylostella) | percent effect (mortality or growth inhibition) at 200 ppm (Diabrotica Balteata) | mortality at 200 ppm (Thrips tabaci) | mortality at 200 ppm (Tetranychus urticae) | mortality at 200 ppm (Myzus persicae)

CC(=O)OCC1=NOC(NC(=O)c2ccc(C3=NO[C@@](c4cc(Cl)c(F)c(Cl)c4)(C(F)(F)F)C3)cc2C)C1 (stereo partly drawn) [Compound A069]
≥ 80%: percent control (mortality, anti-feedant effect or growth inhibition) at 200 ppm (Spodoptera littoralis) | percent effect (mortality or growth inhibition) at 200 ppm (Plutella xylostella) | percent effect (mortality or growth inhibition) at 200 ppm (Diabrotica Balteata) | mortality at 200 ppm (Thrips tabaci) | mortality at 200 ppm (Tetranychus urticae) | mortality at 200 ppm (Myzus persicae)

CCCOC1=NOC(NC(=O)c2ccc(C3=NO[C@@](c4cc(Cl)c(F)c(Cl)c4)(C(F)(F)F)C3)cc2C)C1 (stereo partly drawn) [Compound A070]
≥ 80%: percent control (mortality, anti-feedant effect or growth inhibition) at 200 ppm (Spodoptera littoralis) | percent effect (mortality or growth inhibition) at 200 ppm (Plutella xylostella) | percent effect (mortality or growth inhibition) at 200 ppm (Diabrotica Balteata) | mortality at 200 ppm (Thrips tabaci) | mortality at 200 ppm (Tetranychus urticae) | mortality at 200 ppm (Myzus persicae)

Cc1cc(C2=NO[C@@](c3cc(Cl)c(F)c(Cl)c3)(C(F)(F)F)C2)ccc1C(=O)NC1CC(OCC(F)F)=NO1 (stereo partly drawn) [Compound A071]
≥ 80%: percent control (mortality, anti-feedant effect or growth inhibition) at 200 ppm (Spodoptera littoralis) | percent effect (mortality or growth inhibition) at 200 ppm (Plutella xylostella) | percent effect (mortality or growth inhibition) at 200 ppm (Diabrotica Balteata) | mortality at 200 ppm (Thrips tabaci) | mortality at 200 ppm (Tetranychus urticae) | mortality at 200 ppm (Myzus persicae)

C=CCOC1=NOC(NC(=O)c2ccc(C3=NO[C@@](c4cc(Cl)c(F)c(Cl)c4)(C(F)(F)F)C3)cc2C)C1 (stereo partly drawn) [Compound A072]
≥ 80%: percent control (mortality, anti-feedant effect or growth inhibition) at 200 ppm (Spodoptera littoralis) | percent effect (mortality or growth inhibition) at 200 ppm (Plutella xylostella) | percent effect (mortality or growth inhibition) at 200 ppm (Diabrotica Balteata) | mortality at 200 ppm (Thrips tabaci) | mortality at 200 ppm (Tetranychus urticae) | mortality at 200 ppm (Myzus persicae)

Cc1cc(C2=NO[C@@](c3cc(Cl)c(F)c(Cl)c3)(C(F)(F)F)C2)ccc1C(=O)NC1CC(OCC(C)C)=NO1 (stereo partly drawn) [Compound A073]
≥ 80%: percent control (mortality, anti-feedant effect or growth inhibition) at 200 ppm (Spodoptera littoralis) | percent effect (mortality or growth inhibition) at 200 ppm (Plutella xylostella) | percent effect (mortality or growth inhibition) at 200 ppm (Diabrotica Balteata) | mortality at 200 ppm (Thrips tabaci) | mortality at 200 ppm (Tetranychus urticae) | mortality at 200 ppm (Myzus persicae)

C#CCOC1=NOC(NC(=O)c2ccc(C3=NO[C@@](c4cc(Cl)c(F)c(Cl)c4)(C(F)(F)F)C3)cc2C)C1 (stereo partly drawn) [Compound A074]
≥ 80%: percent control (mortality, anti-feedant effect or growth inhibition) at 200 ppm (Spodoptera littoralis) | percent effect (mortality or growth inhibition) at 200 ppm (Plutella xylostella) | percent effect (mortality or growth inhibition) at 200 ppm (Diabrotica Balteata) | mortality at 200 ppm (Thrips tabaci) | mortality at 200 ppm (Tetranychus urticae) | mortality at 200 ppm (Myzus persicae)

Cc1cc(C2=NO[C@@](c3cc(Cl)c(F)c(Cl)c3)(C(F)(F)F)C2)ccc1C(=O)NC1CC(OCC(F)(F)C(F)C(F)(F)F)=NO1 (stereo partly drawn) [Compound A075]
≥ 80%: percent control (mortality, anti-feedant effect or growth inhibition) at 200 ppm (Spodoptera littoralis) | percent effect (mortality or growth inhibition) at 200 ppm (Plutella xylostella) | percent effect (mortality or growth inhibition) at 200 ppm (Diabrotica Balteata) | mortality at 200 ppm (Thrips tabaci) | mortality at 200 ppm (Tetranychus urticae) | mortality at 200 ppm (Myzus persicae)

COCCOC1=NOC(NC(=O)c2ccc(C3=NO[C@@](c4cc(Cl)c(F)c(Cl)c4)(C(F)(F)F)C3)cc2C)C1 (stereo partly drawn) [Compound A076]
≥ 80%: percent control (mortality, anti-feedant effect or growth inhibition) at 200 ppm (Spodoptera littoralis) | percent effect (mortality or growth inhibition) at 200 ppm (Plutella xylostella) | percent effect (mortality or growth inhibition) at 200 ppm (Diabrotica Balteata) | mortality at 200 ppm (Thrips tabaci) | mortality at 200 ppm (Tetranychus urticae) | mortality at 200 ppm (Myzus persicae)
